Data taken from ChEMBL document CHEMBL1201862, “PubChem BioAssay data set” (2004).
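1) Cells in 96-well plates. 2) Compound, 48 h, 5 concentrations. 3) Linear interpolation between surrounding doses. 4) Unreached endpoint = highest concentration. The concentration for 50% growth inhibition is given as GI50.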 Calls of active or inactive are those of the source. No stated cut-off is given here; in the data, active = GI50 up to about 1.1 µM and inactive = higher.

Columns and labels:
Assay in all cases: inhibition of tumour cell growth, NCI panel, 48 h
ACHN = system: ACHN
BT-549 = system: BT-549
HT-29 = system: HT-29
KM12 = system: KM12
MDA-MB-231 = system: MDA-MB-231
MDA-N = system: MDA-N
NCI-H23 = system: NCI-H23
NCI-H522 = system: NCI-H522
OVCAR-3 = system: OVCAR-3
OVCAR-5 = system: OVCAR-5
OVCAR-8 = system: OVCAR-8
RXF 393 = system: RXF 393
SF-295 = system: SF-295
SF-539 = system: SF-539
SK-MEL-28 = system: SK-MEL-28
SK-OV-3 = system: SK-OV-3
SN12C = system: SN12C
T47D = system: T47D
U-251 = system: U-251
UACC-62 = system: UACC-62

O=C(O)C1CC=CCC1C(=O)Nc1cccc(O)c1 (stereo not given)
GI50 (ACHN): > 100 µM (inactive) | GI50 (BT-549): > 100 µM (inactive) | GI50 (HT-29): > 100 µM (inactive) | GI50 (KM12): > 100 µM (inactive) | GI50 (MDA-MB-231): > 100 µM (inactive) | GI50 (MDA-N): > 100 µM (inactive) | GI50 (NCI-H23): > 100 µM (inactive) | GI50 (NCI-H522): > 100 µM (inactive) | GI50 (OVCAR-3): > 100 µM (inactive) | GI50 (OVCAR-5): > 100 µM (inactive) | GI50 (OVCAR-8): > 100 µM (inactive) | GI50 (RXF 393): > 100 µM (inactive) | GI50 (SF-295): > 100 µM (inactive) | GI50 (SF-539): > 100 µM (inactive) | GI50 (SK-MEL-28): > 100 µM (inactive) | GI50 (SK-OV-3): > 100 µM (inactive) | GI50 (SN12C): > 100 µM (inactive) | GI50 (T47D): > 100 µM (inactive) | GI50 (U-251): > 100 µM (inactive) | GI50 (UACC-62): > 100 µM (inactive)

COC(=O)/C=C/C(=O)Nc1cc(Cl)c(Cl)cc1CC(=O)N(C)[C@H]1CCCC[C@@H]1N1CCCC1
GI50 (ACHN): 2.85 µM (inactive) | GI50 (BT-549): 12.9 µM (inactive) | GI50 (HT-29): 7.8 µM (inactive) | GI50 (KM12): 22.1 µM (inactive) | GI50 (MDA-MB-231): 13.3 µM (inactive) | GI50 (MDA-N): 6.61 µM (inactive) | GI50 (NCI-H23): 13.8 µM (inactive) | GI50 (NCI-H522): 1.79 µM (inactive) | GI50 (OVCAR-3): 3.27 µM (inactive) | GI50 (OVCAR-5): 15.8 µM (inactive) | GI50 (OVCAR-8): 5.27 µM (inactive) | GI50 (RXF 393): 4.01 µM (inactive) | GI50 (SF-295): 18.3 µM (inactive) | GI50 (SF-539): 5.04 µM (inactive) | GI50 (SK-MEL-28): 16.1 µM (inactive) | GI50 (SK-OV-3): 18.1 µM (inactive) | GI50 (SN12C): 10.2 µM (inactive) | GI50 (T47D): 8.73 µM (inactive) | GI50 (U-251): 14.8 µM (inactive) | GI50 (UACC-62): 13.9 µM (inactive)

Cc1cc2ccc(OC(=O)c3ccc(NC(=N)N)cc3)cc2oc1=O
GI50 (ACHN): > 100 µM (inactive) | GI50 (BT-549): 26.3 µM (inactive) | GI50 (HT-29): 26.6 µM (inactive) | GI50 (KM12): 21.7 µM (inactive) | GI50 (MDA-MB-231): 22 µM (inactive) | GI50 (MDA-N): 29.2 µM (inactive) | GI50 (NCI-H23): 21.3 µM (inactive) | GI50 (NCI-H522): 18.3 µM (inactive) | GI50 (OVCAR-3): 16.5 µM (inactive) | GI50 (OVCAR-5): 34.3 µM (inactive) | GI50 (OVCAR-8): 33.3 µM (inactive) | GI50 (RXF 393): 33.3 µM (inactive) | GI50 (SF-295): 46.5 µM (inactive) | GI50 (SF-539): 24.5 µM (inactive) | GI50 (SK-MEL-28): 24 µM (inactive) | GI50 (SK-OV-3): 19.1 µM (inactive) | GI50 (SN12C): 23.6 µM (inactive) | GI50 (T47D): 26.8 µM (inactive) | GI50 (U-251): 21.6 µM (inactive) | GI50 (UACC-62): 26.9 µM (inactive)

O=C1CSC(/C(=C\c2ccc(Cl)cc2)c2nc3ccccc3[nH]2)=N1
GI50 (ACHN): 6.68 µM (inactive) | GI50 (BT-549): 19.2 µM (inactive) | GI50 (HT-29): 21.7 µM (inactive) | GI50 (KM12): 13.2 µM (inactive) | GI50 (MDA-MB-231): 12.7 µM (inactive) | GI50 (MDA-N): 18.2 µM (inactive) | GI50 (NCI-H23): 14.8 µM (inactive) | GI50 (NCI-H522): 5.3 µM (inactive) | GI50 (OVCAR-3): 7.78 µM (inactive) | GI50 (OVCAR-5): 17 µM (inactive) | GI50 (OVCAR-8): 7.91 µM (inactive) | GI50 (RXF 393): 0.738 µM (active) | GI50 (SF-295): 9.2 µM (inactive) | GI50 (SF-539): 0.659 µM (active) | GI50 (SK-MEL-28): 15.7 µM (inactive) | GI50 (SK-OV-3): 11.5 µM (inactive) | GI50 (SN12C): 17.8 µM (inactive) | GI50 (T47D): 13.9 µM (inactive) | GI50 (U-251): 12.3 µM (inactive) | GI50 (UACC-62): 18.7 µM (inactive)

COC(OC)C1OC(CO)C(n2cc(C)c(=O)[nH]c2=O)C1O (stereo not given)
GI50 (ACHN): > 100 µM (inactive) | GI50 (BT-549): > 100 µM (inactive) | GI50 (HT-29): > 100 µM (inactive) | GI50 (KM12): > 100 µM (inactive) | GI50 (MDA-MB-231): > 100 µM (inactive) | GI50 (MDA-N): > 100 µM (inactive) | GI50 (NCI-H23): > 100 µM (inactive) | GI50 (NCI-H522): > 100 µM (inactive) | GI50 (OVCAR-3): > 100 µM (inactive) | GI50 (OVCAR-5): > 100 µM (inactive) | GI50 (OVCAR-8): > 100 µM (inactive) | GI50 (RXF 393): 61.7 µM (inactive) | GI50 (SF-295): > 100 µM (inactive) | GI50 (SF-539): > 100 µM (inactive) | GI50 (SK-MEL-28): > 100 µM (inactive) | GI50 (SK-OV-3): > 100 µM (inactive) | GI50 (SN12C): > 100 µM (inactive) | GI50 (T47D): > 100 µM (inactive) | GI50 (U-251): > 100 µM (inactive) | GI50 (UACC-62): > 100 µM (inactive)

C(=N\Nc1nnc2c(n1)[nH]c1ccccc12)/c1cccnc1
GI50 (ACHN): > 100 µM (inactive) | GI50 (BT-549): > 100 µM (inactive) | GI50 (HT-29): > 100 µM (inactive) | GI50 (KM12): 3.69 µM (inactive) | GI50 (MDA-MB-231): > 100 µM (inactive) | GI50 (MDA-N): > 100 µM (inactive) | GI50 (NCI-H23): > 100 µM (inactive) | GI50 (NCI-H522): > 100 µM (inactive) | GI50 (OVCAR-3): > 100 µM (inactive) | GI50 (OVCAR-5): > 100 µM (inactive) | GI50 (OVCAR-8): > 100 µM (inactive) | GI50 (RXF 393): > 100 µM (inactive) | GI50 (SF-295): > 100 µM (inactive) | GI50 (SF-539): > 100 µM (inactive) | GI50 (SK-MEL-28): > 100 µM (inactive) | GI50 (SK-OV-3): > 100 µM (inactive) | GI50 (SN12C): > 100 µM (inactive) | GI50 (T47D): > 100 µM (inactive) | GI50 (U-251): > 100 µM (inactive) | GI50 (UACC-62): > 100 µM (inactive)

COP(=O)(/C=C/c1cc(C(=O)OCc2ccccc2)n(S(=O)(=O)c2ccccc2)c1)OC
GI50 (ACHN): > 100 µM (inactive) | GI50 (BT-549): > 100 µM (inactive) | GI50 (HT-29): > 100 µM (inactive) | GI50 (KM12): > 100 µM (inactive) | GI50 (MDA-MB-231): > 100 µM (inactive) | GI50 (MDA-N): > 100 µM (inactive) | GI50 (NCI-H23): > 100 µM (inactive) | GI50 (NCI-H522): > 100 µM (inactive) | GI50 (OVCAR-3): > 100 µM (inactive) | GI50 (OVCAR-5): > 100 µM (inactive) | GI50 (OVCAR-8): > 100 µM (inactive) | GI50 (RXF 393): > 100 µM (inactive) | GI50 (SF-295): > 100 µM (inactive) | GI50 (SF-539): > 100 µM (inactive) | GI50 (SK-MEL-28): > 100 µM (inactive) | GI50 (SK-OV-3): > 100 µM (inactive) | GI50 (SN12C): > 100 µM (inactive) | GI50 (T47D): > 100 µM (inactive) | GI50 (U-251): > 100 µM (inactive) | GI50 (UACC-62): > 100 µM (inactive)

CCOC(=O)Nc1cc2c(c(N)n1)N=C(c1ccc3ccccc3c1)CN2
GI50 (ACHN): 0.258 µM (active) | GI50 (BT-549): 1.75 µM (inactive) | GI50 (HT-29): 0.301 µM (active) | GI50 (KM12): 0.0715 µM (active) | GI50 (MDA-MB-231): 2.39 µM (inactive) | GI50 (MDA-N): < 0.01 µM (active) | GI50 (NCI-H23): 0.325 µM (active) | GI50 (NCI-H522): 0.0769 µM (active) | GI50 (OVCAR-3): 0.0494 µM (active) | GI50 (OVCAR-5): 10.5 µM (inactive) | GI50 (OVCAR-8): < 0.0208 µM (active) | GI50 (RXF 393): 0.105 µM (active) | GI50 (SF-295): 0.0281 µM (active) | GI50 (SF-539): 0.08 µM (active) | GI50 (SK-MEL-28): 1.95 µM (inactive) | GI50 (SK-OV-3): 0.2 µM (active) | GI50 (SN12C): 0.0711 µM (active) | GI50 (T47D): 22.8 µM (inactive) | GI50 (U-251): 0.0339 µM (active) | GI50 (UACC-62): 0.0328 µM (active)

Cc1c(/N=N/c2ccc([N+](=O)[O-])cc2)nc2scc(-c3ccccc3)n12
GI50 (ACHN): 63.4 µM (inactive) | GI50 (BT-549): > 78.7 µM (inactive) | GI50 (HT-29): > 88.5 µM (inactive) | GI50 (KM12): 53.5 µM (inactive) | GI50 (MDA-MB-231): > 100 µM (inactive) | GI50 (MDA-N): > 100 µM (inactive) | GI50 (NCI-H23): 90.8 µM (inactive) | GI50 (NCI-H522): 46.5 µM (inactive) | GI50 (OVCAR-3): > 100 µM (inactive) | GI50 (OVCAR-5): > 66.7 µM (inactive) | GI50 (OVCAR-8): 71.6 µM (inactive) | GI50 (RXF 393): 99.5 µM (inactive) | GI50 (SF-295): 52.7 µM (inactive) | GI50 (SF-539): 82.6 µM (inactive) | GI50 (SK-MEL-28): > 100 µM (inactive) | GI50 (SK-OV-3): > 100 µM (inactive) | GI50 (SN12C): > 100 µM (inactive) | GI50 (T47D): > 70.8 µM (inactive) | GI50 (U-251): > 100 µM (inactive) | GI50 (UACC-62): > 65.6 µM (inactive)

N/N=C(\C(=O)Nc1ccc(Cl)cc1Cl)C(c1cnc2ccccc2n1)[N+](=O)[O-] (stereo not given)
GI50 (ACHN): 71.1 µM (inactive) | GI50 (BT-549): > 100 µM (inactive) | GI50 (HT-29): > 100 µM (inactive) | GI50 (KM12): > 100 µM (inactive) | GI50 (MDA-MB-231): > 100 µM (inactive) | GI50 (MDA-N): > 100 µM (inactive) | GI50 (NCI-H23): > 100 µM (inactive) | GI50 (NCI-H522): > 100 µM (inactive) | GI50 (OVCAR-3): > 100 µM (inactive) | GI50 (OVCAR-5): > 100 µM (inactive) | GI50 (OVCAR-8): > 100 µM (inactive) | GI50 (RXF 393): > 100 µM (inactive) | GI50 (SF-295): > 100 µM (inactive) | GI50 (SF-539): > 100 µM (inactive) | GI50 (SK-MEL-28): > 100 µM (inactive) | GI50 (SK-OV-3): > 100 µM (inactive) | GI50 (SN12C): > 100 µM (inactive) | GI50 (T47D): > 100 µM (inactive) | GI50 (U-251): > 100 µM (inactive) | GI50 (UACC-62): > 100 µM (inactive)
